Values joined by “and” are separate entries in the source; they are usually repeats but may differ in a detail not shown here. Equal values may be shown once. Read-outs that look alike come from different tables or passages of the source.
Key:
[1] = molecular target: T1, gp43exo− (bacteriophage T4 DNA polymerase) (Enterobacteria phage T4, UniProt P04415, D219A); assay type: biochemical; settings: 500 μM analogue; 10 μM dNTPs; unmodified 13/20-mer
[2] = molecular target: T2, gp43 exo+ (bacteriophage T4 DNA polymerase) (Enterobacteria phage T4, UniProt P04415); assay: Idle turnover measurements with KINSIM simulation; assay type: biochemical
T2 construct: made in house
T2 sequence (P04415 1-898): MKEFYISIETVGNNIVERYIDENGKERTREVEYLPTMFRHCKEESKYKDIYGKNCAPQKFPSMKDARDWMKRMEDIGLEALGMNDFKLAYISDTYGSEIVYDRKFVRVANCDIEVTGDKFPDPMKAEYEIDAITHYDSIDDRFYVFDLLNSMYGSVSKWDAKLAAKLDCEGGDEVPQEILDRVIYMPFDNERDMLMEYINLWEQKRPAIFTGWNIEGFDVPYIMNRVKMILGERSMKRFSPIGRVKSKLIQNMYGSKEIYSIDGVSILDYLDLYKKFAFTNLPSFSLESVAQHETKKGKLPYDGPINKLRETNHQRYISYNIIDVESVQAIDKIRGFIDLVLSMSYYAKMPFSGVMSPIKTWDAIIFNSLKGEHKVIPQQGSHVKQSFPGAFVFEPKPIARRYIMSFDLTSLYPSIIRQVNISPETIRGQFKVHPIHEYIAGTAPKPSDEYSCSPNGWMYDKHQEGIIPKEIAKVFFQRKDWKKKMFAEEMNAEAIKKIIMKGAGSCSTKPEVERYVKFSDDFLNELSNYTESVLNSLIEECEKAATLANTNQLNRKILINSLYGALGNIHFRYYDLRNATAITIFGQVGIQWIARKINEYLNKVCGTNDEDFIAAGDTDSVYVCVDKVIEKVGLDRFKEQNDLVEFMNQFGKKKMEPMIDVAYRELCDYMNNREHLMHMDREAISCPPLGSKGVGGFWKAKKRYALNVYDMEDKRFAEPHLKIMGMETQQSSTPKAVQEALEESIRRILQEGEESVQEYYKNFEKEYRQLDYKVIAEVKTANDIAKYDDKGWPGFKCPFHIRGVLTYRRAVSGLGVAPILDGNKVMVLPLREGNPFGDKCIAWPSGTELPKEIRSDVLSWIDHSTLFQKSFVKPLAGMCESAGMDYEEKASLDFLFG
Method: DNA (13/20SP-mer or 13/20T-mer; 250 nM) was first preincubated with variable concentrations of 5-NITP (20-200 μM) or 5-PhITP (10-200 μM) in the presence of 30 μM dATP. Due to the nature of the DNA substrate (FIG. 1B), the insertion of dAMP opposite T at position 13 in the template maintains a usable primer template for the insertion of the nonnatural nucleotide opposite the abasic lesion (position 14). In all cases, the reaction was initiated through the addition of 1000 nM DNA gp43 exo^+. Five microliter aliquots of the reaction were quenched into tubes containing 5 μL of 200 mM EDTA at times ranging from 5 to 600 s. The quenched samples were processed as described above and product formation was analyzed using established protocols.
Simulations modeling the observed kinetic time courses for nucleotide insertion and excision were performed by mathematical analyses using KINSIM. A simplified mechanism depicted in FIG. 11 was employed that accounts for the kinetic parameters of interest. These minimally include KD values for each nucleotide, kpol values for their insertion, and kexo, which represents the hydrolytic rate constant. Both the starting reactant concentrations and rate constants were supplied for each step of the mechanism. In all cases, the rate constants were based upon either experimentally determined rate constants or published literature values. The simulated curves were then compared to those experimentally derived to judge how accurately each set of rate constants fit the experimental data. Adjustments to the rate constants were then made until the simulated time courses were nearly identical to the experimental time courses.
Idle turnover is a process in which the DNA polymerase incorporates a dNTP and then excises the inserted dNMP in the absence of the next required nucleotide triphosphate (FIG. 11). This activity provides a more accurate representation of in vivo conditions in which the polymerase should be bound and stalled at the sight of DNA damage. Idle turnover was quantified using a modified gel electrophoresis protocol that monitors the amount of extension (13-mer to 14-mer) and subsequent excision (14-mer to 13-mer) of the DNA as a function of time. All experiments were performed using single turnover reaction conditions to ensure that all DNA was bound with polymerase during the course of the reaction. Under these conditions, the rates in product formation reflect the kinetics of insertion and excision rather than enzyme dissociation from the mispair. In each experiment, the concentration of nonnatural nucleotide was varied from 20 to 200 μM. In addition, a low concentration of 30 μM dATP was used to allow for correct dNMP insertion at position 13-mer, which prevents complete degradation of DNA substrate.
Since single turnover reaction conditions were employed, kinetic steps reflecting enzyme dissociation and rebinding to product DNA are assumed to be negligible. Thus, the rate and amount of 14-mer produced are dependent upon four interrelated parameters. These include the kinetic dissociation constant (KD) for dXTP opposite the lesion (DNAn) (step 2), the rate constant for DNA extension (kpol) (step 3), the rate constant of exonuclease degradation (kexo) (step 5), and the kinetic dissociation constant (KD′) for dXTP opposite the next templating position (DNAn+1) (step 6). Although kpol is a complex function of kinetic rate constants, this value was simplified to combine the kinetic steps encompassing the conformational change prior to phosphoryl transfer, phosphoryl transfer, and the conformational change after phosphoryl transfer. Furthermore, translocation of the enzyme and pyrophosphate release (step 4) are assumed to be rapid.

[3] = molecular target: T1, gp43exo− (bacteriophage T4 DNA polymerase); assay type: biochemical; settings: 50 μM dXTP 30 s, then 1000 μM dGTP
[4] = molecular target: T1, gp43exo− (bacteriophage T4 DNA polymerase); assay: biochemical; settings: for kpol: pseudo-first-order conditions
[5] = test system: bacteriophage T4 polymerase; assay: Calculated discrimination, toxicity index and therapeutic index; assay type: biochemical; settings: for toxicity index (abasic DNA) / toxicity index (unmodified DNA): (kpol dNTP/kexo dXTP)(dXTP/dNTP)/(4D); for discrimination (unmodified DNA): ratio of catalytic efficiencies opposite templating nucleobase; for discrimination (abasic DNA): ratio of catalytic efficiencies, dATP versus dXTP
[6] = molecular target: T1, gp43exo− (bacteriophage T4 DNA polymerase); assay: biochemical; assay type: biochemical; settings: for inhibition of replication beyond an abasic site: 20 μM analogue, 500 μM dNTPs
[7] = molecular target: T1, gp43exo− (bacteriophage T4 DNA polymerase); assay: biochemical; assay type: biochemical
[8] = molecular target: T2, gp43 exo+ (bacteriophage T4 DNA polymerase); assay: Pre-steady-state exonuclease assay (excision of dXMP from primer); assay type: biochemical; settings: for kexo: single turnover, 1 μM gp43exo+
[9] = molecular target: T2, gp43 exo+ (bacteriophage T4 DNA polymerase); settings: paired opposite T; cited from earlier work
[10] = molecular target: T1, gp43exo− (bacteriophage T4 DNA polymerase); settings: cited from earlier work
[11] = molecular target: T1, gp43exo− (bacteriophage T4 DNA polymerase); settings: opposite an abasic site; previously determined values (Table 7 footnotes d, e, f not given); cited from earlier work
[12] = molecular target: T1, gp43exo− (bacteriophage T4 DNA polymerase); settings: previously demonstrated, cited from earlier work
[13] = idle turnover opposite an abasic site, computer simulation fit of time courses

For `O=P(O)(O)OP(=O)(O)OP(=O)(O)OC[C@H]1O[C@@H](n2ccc3cc(-c4ccccc4)ccc32)C[C@@H]1O` [5-PhITP, 5-Phenyl-indole-2′-Deoxyribofuranoside 5′-Triphosphate], the “inhibition of normal DNA synthesis” value [1] was “Nearly identical results are obtained”, the “stability of incorporation opposite the abasic site (idle turnover)” value ([2]; 100 μM nucleotide, compared with 100 μM 5-NITP) was “more stably incorporated opposite the abasic site” and the Kd [2, 13] was 20 ± 5 µM. For the same molecule, the kexo [2, 13] was 1.0 ± 0.1 S^−1, the kpol [2, 13] was 50 ± 10 S^−1 and the “extension beyond the mispair formed opposite an abasic site” value [3] was “identical results are obtained”. The Kd ([4]; KD) was ~25 µM, the kpol/KD ([4]; Template A) was 4.0 × 10^3 M^−1S^−1 and the kpol ([4]; Template A) was 0.12 ± 0.01 s⁻¹. The kpol/KD ([4]; Template C) was 6.8 × 10^3 M^−1S^−1, the kpol ([4]; Template C) was 0.19 ± 0.02 s⁻¹ and the kpol/KD ([4]; Template G) was 21.7 × 10^3 M^−1S^−1. The kpol ([4]; Template G) was 0.26 ± 0.02 s⁻¹, the kpol/KD ([4]; Template T) was 6.4 × 10^3 M^−1S^−1 and the kpol ([4]; Template T) was 0.16 ± 0.01 s⁻¹. For the same molecule, the “toxicity index (abasic DNA)” value [5] was ~33, the “toxicity index (unmodified DNA)” value [5] was 0.01-0.05 and the “discrimination (unmodified DNA)” value [5] was 460-2500. The “discrimination (abasic DNA)” value [5] was 11.4×10^−5 and 11.4 × 10^−4, the “inhibition of replication beyond an abasic site” value [6] was “Identical results are obtained” and the IC50 [6] was 10 µM and ~10 µM. The “amplitude of the burst phase” value [7] was 75 nM, the burst amplitude [7] was 240 ± 6 nM and 220 ± 3 nM and 220 nM and the kcat [7] was 2.2 s⁻¹. For the same molecule, the kobs [7] was 37.4 s⁻¹ and 38.4 s⁻¹ and ~38 s⁻¹ and 38.4 ± 2.1 s⁻¹ and 37.4 ± 1.4 s⁻¹, the “kobs calculated from Michaelis-Menten equation” value [7] was 14 s⁻¹ and the kpol [7] was 53 ± 4 s⁻¹. For the same molecule, the kpol/KD [7] was 3.8e+06 M⁻¹ s⁻¹, the “observed rate constant of the burst phase (kobs)” value [7] was 9.1 ± 2.1 s⁻¹ and 9 s⁻¹ and the Kd ([7]; KD) was ~10 µM.
With `Nc1ncnc2c1ncn2[C@H]1C[C@H](O)[C@@H](COP(=O)(O)O)O1` [dAMP] the “rate constant for excision opposite the abasic site faster than opposite T” value ([8]; abasic site versus T) was ~40 fold, the kexo ([8]; template abasic site) was 28.5±1.1 s^−1 and ≈ 28 s^−1 and 28.5+/−1.1 s^−1 and the kexo ([8]; template nucleoside thymine) was 0.8 ± 0.1 s⁻¹. The “kexo, published value” [9] was 2 s⁻¹.
In the case of `O=[N+]([O-])c1ccc2c(ccn2[C@H]2C[C@H](O)[C@@H](COP(=O)(O)OP(=O)(O)OP(=O)(O)O)O2)c1` [5-NITP, 5-nitro-1-indolyl-2′-deoxyribose-5′-triphosphate], the Kd [10] is given as 18 µM and ~10 µM, the “catalytic efficiency for insertion opposite an abasic site relative to natural nucleotide (dAMP/dATP), greater” value [10] is given as 1000 fold and the “incorporation opposite an abasic site favored compared to insertion opposite T (kpol)” value [10] is given as 140 fold. For the same molecule, the kpol [10] was 126 ± 6 s⁻¹, the kpol/KD [10] was 7e+06 M⁻¹ s⁻¹ and the “inhibition of normal DNA synthesis” value [1] was “little effect”. The Kd [11] was 18 µM and 10 µM, the kpol [11] was 126 s⁻¹ and 126 ± 7 s⁻¹ and the kexo ([8]; template abasic site) was 9.9 ± 0.8 s⁻¹. For the same molecule, the kexo ([8]; template nucleoside thymine) was 13.0 ± 1.4 s⁻¹, the Kd ([12]; independent of templating nucleobase) was ~20 µM and the kpol ([12]; opposite T) was ~0.9 s⁻¹. The Kd ([2]; dXTP opposite the next templating position, computer simulation fit) was 10000 µM, the Kd [2, 13] was 20 µM and the kexo [2, 13] was 10 S^−1 and 10 ± 2 S^−1. For the same molecule, the kpol [2, 13] was 100 S^−1 and 100 ± 10 S^−1, the “extension beyond the mispair formed opposite an abasic site” value [3] was “cannot elongate beyond the 14-mer product” and the therapeutic index [5] was ~128. The “toxicity index (abasic DNA)” value [5] was ~6, the “toxicity index (unmodified DNA)” value [5] was 0.047 and the “discrimination (unmodified DNA)” value [5] was ~53. For the same molecule, the “discrimination (abasic DNA)” value [5] was 6.1×10^−4, the “inhibition of replication beyond an abasic site” value [6] was “level of 14-mer product remains invariant” and the IC50 [6] was 10 µM and ~10 µM.
